According to ChEMBL document CHEMBL1148315, “Photoaffinity labeling of the anionic sites in Caco-2 cells mediating saturable transport of hydrophilic cations ranitidine and famotidine” (2004):

Legend:
Format in all cases: functional, Homo sapiens
Caco-2 [1] = assay: Inhibition of irreversible increase in transepithelial electrical resistance across Caco-2 cell monolayer by the compound in the presence of 5 mM of famotidine
Caco-2 [2] = assay: Inhibition of Ranitidine transport across Caco-2 cell monolayer by the compound (200 uM) After photoactivation at 254 nM
Caco-2 [3] = assay: Inhibition of apical to basolateral transport of Ranitidine (100 uM) across Caco-2 cell monolayer in the presence of 300 uM of compound
Caco-2 [4] = assay: Ability to increase the transepithelial electrical resistance across Caco-2 cell monolayer at 200 uM concentration

For `N=C(N)Nc1nc(CSCCC(=N)NS(N)(=O)=O)cs1.[N-]=[N+]=Nc1ccc(C(=O)NCCSCc2csc(NC(=N)N)n2)cc1`, the Inhibition (Caco-2 [1]) was 35%.
With `CNC(=C[N+](=O)[O-])NCCSCc1ccc(CN(C)C)o1.[N-]=[N+]=Nc1ccc(C(=O)NCCSCc2csc(NC(=N)N)n2)cc1` the Inhibition (Caco-2 [2]) was 35% and the Inhibition (Caco-2 [3]) was 40%.
For `[N-]=[N+]=Nc1ccc(C(=O)NCCSCc2csc(NC(=N)N)n2)cc1`, the Increase (Caco-2 [4]) was 120%.
